Key:
EGFR Wt = EGFR Wt (Homo sapiens, UniProt P00533); test: EGFR biochemical enzyme assay, Wt
[1] = tested on: PC9 (E746-A750 deletion) cells; test: EGFR cell proliferation assay (CellTiter-Glo), PC9; format: cell-based; settings: 3-5 days
Experimental: (§1) Cell Lines: A431 (WT), H1975 (L858R/T790M), PC9 (E746-A750 deletion): A431 cells were grown in DMEM (Invitrogen, Carlsbad, Calif.) supplemented with 10% FBS (HyClone, South Logan, Utah) and 1% Penicillin-Streptomycin (P/S, Lonza, Walkersville, Md.). H1975 cells were grown in RPMI 1640 (Invitrogen) supplemented with 10% FBS and 1% P/S. […] PC-9 cells were obtained from Japan. All cells were maintained and propagated as monolayer cultures at 37° C. in a humidified 5% CO2 incubator. All cells were cultured according to recommendations.
(§2) Cell proliferation was measured using the CellTiter-Glo® Luminescent Cell Viability Assay. The assay involved the addition of a single reagent (CellTiter-Glo® Reagent) directly to cells cultured in serum-supplemented medium. The assay used a one-step addition to induce cell lysis and generate a luminescent signal proportional to the amount of ATP present, which is directly proportional to the number of metabolically active cells present in culture.
(§3) Each compound evaluated was prepared as a DMSO stock solution (10 mM). Compounds were tested in duplicate on each plate, with an 11-point serial dilution curve (1:3 dilution). Compound treatment (50 μL) was added from the compound dilution plate to the cell plate. The highest compound concentration was 1 or 10 μM (final), with a 0.3% final DMSO (#D-5879, Sigma, St Louis, Mo.) concentration. Plates were then incubated at 37° C., 5% CO2. After 3-5 days of compound treatment, CellTiter-Glo® Reagent (#G7573, Promega, Madison, Wis.) was prepared in one of two ways. If thawing a frozen aliquot of CellTiter-Glo® Reagent, the aliquot was thawed and equilibrated to RT prior to use while keeping it protected from light. Alternatively, new bottles of CellTiter-Glo® Buffer and CellTiter-Glo® Substrate were thawed and equilibrated to RT prior to use. CellTiter-Glo® Buffer (100 mL) was transferred into the amber bottle containing CellTiter-Glo® Substrate to reconstitute the lyophilized enzyme/substrate mixture, forming the CellTiter-Glo® Reagent. The reconstituted reagent was mixed by gently inverting the contents to obtain a homogeneous solution, and went into solution easily in less than 1 min. Any unused reconstituted CellTiter-Glo® Reagent was immediately aliquoted and frozen at −20° C., and protected from light. Cell plates were equilibrated at RT for approximately 30 mins. An equi-volume amount of CellTiter-Glo® Reagent (100 μL) was added to each well. Plates were mixed for 2 mins on an orbital shaker to induce cell lysis, and then were allowed to incubate at RT for 10 mins to stabilize the luminescent signal. Luminescence was recorded using the PerkinElmer EnVision Excite Multilabel Reader used for endpoint reading for luminescence detection (Waltham, Mass.). Data was analyzed using a four-parameter fit in Microsoft Excel.

EGFR Del-19 = molecular target: T1, EGFR Del-19 (Homo sapiens, UniProt P00533); test: EGFR biochemical enzyme assay, Del-19
T1 construct: as on the sister T790M/L858R enzyme

A431 (WT) cells = test: EGFR cell proliferation assay (CellTiter-Glo), A431; format: cell-based; settings: Homo sapiens, A-431, 3-5 days
Experimental: as §1, §2, §3

human EGFR (T790M/L858R) = molecular target: T2, human EGFR (T790M/L858R) (Homo sapiens, UniProt P00533, L858R/T790M); test: EGFR biochemical enzyme assay (HTRF KinEASE TK); settings: 30 μM ATP
T2 construct: with amino acids 696-end containing the T790M and L858R mutations; GST (N); purchased Millipore
Experimental: The inhibitory activity of a compound against EGFR (T790M/L858R) were determined with CisBio HTRF (homogenous time-resolved fluorescence) KinEASE TK (#62TKOPEC). The enzyme reaction contained recombinant N-terminal GST-tagged human EGFR (T790M/L858R), which phosphorylates the HTRF tyrosine kinase biotinylated substrate.
The sequence of the substrate is proprietary to CisBio. Test compounds were serially diluted in 100% (v/v) DMSO before being acoustically dispensed from an Echo 555 (Labcyte) into black Corning 1536-well assay plates. Kinase activity assays were performed in a total reaction volume of 3 μL per well. A 1.5 μL enzyme reaction consisted of 1.6 nM EGFR ([…], L858R), 1 mM DTT, and 10 mM MgCl2. A 1.5 μL substrate mix consisted of 1 μM TK substrate, 30 μM ATP, 1 mM DTT, and 10 mM MgCl2. Following a 50 mins incubation, 3 μL of stop mix was added, which consisted of 250 nM Strep-XL665 and TK Ab-Cryptate diluted in kit detection buffer. The plates were incubated for 1 h before being read on Pherastar using standard HTRF settings. N-terminal GST-tagged recombinant human EGF receptor, with amino acids 696-end containing the T790M and L858R mutations, was obtained from Millipore.

IGF1R = IGF1R (Homo sapiens, UniProt P08069); test: Biochemical enzyme assay, IGF1R
INSR = INSR (Homo sapiens, UniProt P06213); test: Biochemical enzyme assay, INSR
[2] = tested on: H1975 (L858R/T790M) cells; test: EGFR cell proliferation assay (CellTiter-Glo), H1975; format: cell-based; settings: Homo sapiens, NCI-H1975, 3-5 days
Experimental: as §1, §2, §3

EGFR L858R = EGFR L858R (Homo sapiens, UniProt P00533, L858R); test: EGFR biochemical enzyme assay, L858R

Chain of INSR (P06213 28-1382, species assumed): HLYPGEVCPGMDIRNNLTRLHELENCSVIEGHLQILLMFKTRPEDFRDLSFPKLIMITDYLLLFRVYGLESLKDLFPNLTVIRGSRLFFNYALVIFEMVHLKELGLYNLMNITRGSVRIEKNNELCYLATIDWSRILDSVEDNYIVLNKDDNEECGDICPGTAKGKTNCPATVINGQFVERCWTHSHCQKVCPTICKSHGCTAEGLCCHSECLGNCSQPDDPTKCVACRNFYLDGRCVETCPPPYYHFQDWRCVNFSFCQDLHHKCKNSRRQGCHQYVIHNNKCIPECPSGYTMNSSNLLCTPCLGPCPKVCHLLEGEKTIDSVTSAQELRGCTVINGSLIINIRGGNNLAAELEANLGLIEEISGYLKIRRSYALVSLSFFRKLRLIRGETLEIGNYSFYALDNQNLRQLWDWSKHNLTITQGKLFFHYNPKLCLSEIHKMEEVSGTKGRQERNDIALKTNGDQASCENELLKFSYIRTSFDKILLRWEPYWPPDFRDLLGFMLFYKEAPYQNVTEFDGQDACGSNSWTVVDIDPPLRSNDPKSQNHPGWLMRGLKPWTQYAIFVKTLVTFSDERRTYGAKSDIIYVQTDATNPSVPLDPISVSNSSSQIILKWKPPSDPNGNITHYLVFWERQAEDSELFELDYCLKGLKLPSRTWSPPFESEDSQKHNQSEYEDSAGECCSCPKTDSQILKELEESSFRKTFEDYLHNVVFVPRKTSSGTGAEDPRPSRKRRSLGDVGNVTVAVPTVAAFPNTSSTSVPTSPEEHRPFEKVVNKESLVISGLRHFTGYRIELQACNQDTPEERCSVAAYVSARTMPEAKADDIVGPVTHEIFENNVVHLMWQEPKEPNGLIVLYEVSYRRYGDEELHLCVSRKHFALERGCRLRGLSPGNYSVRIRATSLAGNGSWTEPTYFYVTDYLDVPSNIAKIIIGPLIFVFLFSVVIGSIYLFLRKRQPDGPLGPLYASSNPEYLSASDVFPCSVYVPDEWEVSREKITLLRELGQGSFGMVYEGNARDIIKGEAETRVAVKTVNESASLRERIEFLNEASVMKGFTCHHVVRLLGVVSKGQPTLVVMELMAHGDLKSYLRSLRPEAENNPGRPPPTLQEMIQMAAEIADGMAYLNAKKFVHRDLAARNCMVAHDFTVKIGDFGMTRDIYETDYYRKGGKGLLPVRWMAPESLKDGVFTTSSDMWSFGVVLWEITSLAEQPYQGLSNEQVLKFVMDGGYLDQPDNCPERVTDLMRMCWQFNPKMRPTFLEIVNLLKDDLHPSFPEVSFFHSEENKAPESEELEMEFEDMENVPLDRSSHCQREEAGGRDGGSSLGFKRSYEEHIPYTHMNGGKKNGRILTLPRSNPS
Chain of IGF1R (P08069 31-1367, species assumed): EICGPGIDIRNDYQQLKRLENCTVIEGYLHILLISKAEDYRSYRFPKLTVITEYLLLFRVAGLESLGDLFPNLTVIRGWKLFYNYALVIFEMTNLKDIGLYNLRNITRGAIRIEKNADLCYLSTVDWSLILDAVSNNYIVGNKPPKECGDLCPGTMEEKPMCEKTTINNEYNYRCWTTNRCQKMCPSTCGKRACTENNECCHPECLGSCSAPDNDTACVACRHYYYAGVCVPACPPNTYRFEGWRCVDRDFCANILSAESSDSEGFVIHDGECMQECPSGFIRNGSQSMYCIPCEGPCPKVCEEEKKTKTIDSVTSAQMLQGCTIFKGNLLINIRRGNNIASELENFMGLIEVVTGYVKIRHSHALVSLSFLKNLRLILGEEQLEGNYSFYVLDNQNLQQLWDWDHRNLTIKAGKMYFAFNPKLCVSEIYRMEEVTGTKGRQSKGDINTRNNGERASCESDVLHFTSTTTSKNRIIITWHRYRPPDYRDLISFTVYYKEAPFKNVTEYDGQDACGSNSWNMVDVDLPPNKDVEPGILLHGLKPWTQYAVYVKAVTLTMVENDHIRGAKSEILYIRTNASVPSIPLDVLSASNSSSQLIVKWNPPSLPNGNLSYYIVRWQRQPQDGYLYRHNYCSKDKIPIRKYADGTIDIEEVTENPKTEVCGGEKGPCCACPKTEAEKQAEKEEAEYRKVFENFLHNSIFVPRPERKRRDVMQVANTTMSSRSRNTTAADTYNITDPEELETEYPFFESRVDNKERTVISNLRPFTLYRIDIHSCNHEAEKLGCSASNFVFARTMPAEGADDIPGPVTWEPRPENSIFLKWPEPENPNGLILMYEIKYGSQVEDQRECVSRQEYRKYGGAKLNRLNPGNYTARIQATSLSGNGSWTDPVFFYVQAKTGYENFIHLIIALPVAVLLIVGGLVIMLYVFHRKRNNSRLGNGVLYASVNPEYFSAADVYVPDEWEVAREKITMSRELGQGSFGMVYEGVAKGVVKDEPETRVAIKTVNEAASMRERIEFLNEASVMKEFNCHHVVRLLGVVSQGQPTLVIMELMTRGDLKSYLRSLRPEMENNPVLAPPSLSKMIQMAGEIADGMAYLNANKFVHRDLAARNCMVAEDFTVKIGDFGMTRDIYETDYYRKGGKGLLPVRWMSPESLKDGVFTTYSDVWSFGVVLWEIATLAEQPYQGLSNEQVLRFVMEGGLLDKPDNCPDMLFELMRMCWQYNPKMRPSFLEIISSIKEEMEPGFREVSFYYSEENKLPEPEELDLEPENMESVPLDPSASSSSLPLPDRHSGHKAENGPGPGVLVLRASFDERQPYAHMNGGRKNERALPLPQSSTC
Chain of EGFR Wt (P00533 25-1210): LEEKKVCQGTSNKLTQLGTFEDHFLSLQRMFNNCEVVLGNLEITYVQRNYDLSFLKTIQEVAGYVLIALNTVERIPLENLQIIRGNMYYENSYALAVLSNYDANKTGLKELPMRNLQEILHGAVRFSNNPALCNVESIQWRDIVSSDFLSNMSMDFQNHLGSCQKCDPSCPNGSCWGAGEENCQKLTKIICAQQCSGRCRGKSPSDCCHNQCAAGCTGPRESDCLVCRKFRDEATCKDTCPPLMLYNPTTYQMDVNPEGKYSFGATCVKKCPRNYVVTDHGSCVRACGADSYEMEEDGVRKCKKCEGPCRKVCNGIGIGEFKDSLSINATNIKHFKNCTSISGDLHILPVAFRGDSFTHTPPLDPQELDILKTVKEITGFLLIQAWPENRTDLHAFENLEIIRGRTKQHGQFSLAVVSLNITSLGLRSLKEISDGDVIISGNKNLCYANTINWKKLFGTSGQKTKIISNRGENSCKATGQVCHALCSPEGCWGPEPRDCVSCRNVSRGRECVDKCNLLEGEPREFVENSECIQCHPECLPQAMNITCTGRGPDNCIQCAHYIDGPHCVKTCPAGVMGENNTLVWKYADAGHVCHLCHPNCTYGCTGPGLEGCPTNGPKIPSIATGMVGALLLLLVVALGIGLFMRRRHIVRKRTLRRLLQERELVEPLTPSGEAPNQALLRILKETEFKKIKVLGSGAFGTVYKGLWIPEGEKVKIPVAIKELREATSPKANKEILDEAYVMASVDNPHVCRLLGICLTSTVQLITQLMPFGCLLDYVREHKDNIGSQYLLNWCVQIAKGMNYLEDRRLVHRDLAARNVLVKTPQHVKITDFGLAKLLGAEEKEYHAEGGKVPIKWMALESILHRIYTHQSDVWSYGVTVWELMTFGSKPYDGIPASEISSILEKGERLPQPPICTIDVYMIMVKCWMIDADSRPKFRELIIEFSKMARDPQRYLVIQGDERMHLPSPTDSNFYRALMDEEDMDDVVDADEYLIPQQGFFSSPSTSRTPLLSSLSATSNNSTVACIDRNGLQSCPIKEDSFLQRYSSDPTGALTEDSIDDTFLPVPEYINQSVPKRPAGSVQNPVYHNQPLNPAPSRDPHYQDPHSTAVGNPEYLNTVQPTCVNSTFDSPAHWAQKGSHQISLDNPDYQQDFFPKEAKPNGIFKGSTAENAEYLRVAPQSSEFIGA
T2 sequence (P00533 696-1210 T790M/L858R): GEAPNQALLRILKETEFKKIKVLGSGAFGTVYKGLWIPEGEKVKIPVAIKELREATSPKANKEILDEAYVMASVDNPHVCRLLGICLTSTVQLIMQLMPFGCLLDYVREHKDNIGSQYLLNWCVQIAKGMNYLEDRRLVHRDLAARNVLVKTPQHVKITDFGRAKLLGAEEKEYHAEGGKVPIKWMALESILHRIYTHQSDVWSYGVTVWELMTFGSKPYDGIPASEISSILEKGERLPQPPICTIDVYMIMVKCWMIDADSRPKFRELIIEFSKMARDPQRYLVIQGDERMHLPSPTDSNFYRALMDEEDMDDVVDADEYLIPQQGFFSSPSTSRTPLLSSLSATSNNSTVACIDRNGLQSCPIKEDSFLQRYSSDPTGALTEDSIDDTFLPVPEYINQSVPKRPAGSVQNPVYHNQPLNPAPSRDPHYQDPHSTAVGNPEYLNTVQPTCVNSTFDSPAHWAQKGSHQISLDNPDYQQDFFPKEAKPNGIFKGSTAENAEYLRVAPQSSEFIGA

IC50 (EGFR Wt) [nM]	IC50 [1] [nM]	IC50 (EGFR Del-19) [nM]	IC50 (A431 (WT) cells) [nM]	IC50 (human EGFR (T790M/L858R)) [nM]	IC50 (IGF1R) [nM]	IC50 (INSR) [nM]	IC50 [2] [nM]	IC50 (EGFR L858R) [nM]	Structure (SMILES)
≤ 10	< 50	≤ 10	50 to 300	≤ 10	≥ 100	≥ 100	< 50		C=CC(=O)N[C@@H]1CN(c2nc(Nc3cn(CCN(C)C)nc3OC)c3ncc(C)n3n2)C[C@H]1F [Example 5, N-((3R,4R)-1-(4-((1-(2-(dimethylamino)ethyl)-3-methoxy-1H-pyrazol-4-yl)amino)-7-methylimidazo[2,1-f][1,2,4]triazin-2-yl)-4-fluoropyrrolidin-3-yl)acrylamide]
≤ 10	< 50	≤ 10	≥ 300	≤ 10	≥ 100	≥ 100	50 to 300	≤ 10	C=CC(=O)N[C@@H]1CN(c2nc(Nc3cn(C)nc3OC)c3ncn(C45CC(C4)C5)c3n2)C[C@H]1F (racemic) [Example 6, N-((3R,4R)-1-(9-(bicyclo[1.1.1]pentan-1-yl)-6-((3-methoxy-1-methyl-1H-pyrazol-4-yl)amino)-9H-purin-2-yl)-4-fluoropyrrolidin-3-yl)acrylamide]

Second part, the compound before the results:

Structure (SMILES)	IC50 (EGFR Wt) [nM]	IC50 [1] [nM]	IC50 (EGFR Del-19) [nM]	IC50 (A431 (WT) cells) [nM]	IC50 (human EGFR (T790M/L858R)) [nM]	IC50 (IGF1R) [nM]	IC50 (INSR) [nM]	IC50 [2] [nM]	IC50 (EGFR L858R) [nM]
C=CC(=O)N[C@@H]1CN(c2nc(Nc3cn(C)nc3OC)c3ncc(C)n3n2)C[C@H]1F [Example 1, N-((3R,4R)-4-fluoro-1-(4-((3-methoxy-1-methyl-1H-pyrazol-4-yl)amino)-7-methylimidazo[2,1-f][1,2,4]triazin-2-yl)pyrrolidin-3-yl)acrylamide]	≤ 10	< 50	≤ 10	≥ 300	≤ 10	≥ 100	≥ 100	< 50	≤ 10
C=CC(=O)N[C@@H]1CN(c2nc(Nc3cn(C4CCN(C)CC4)nc3OC)c3ncc(C)n3n2)C[C@H]1F [Example 4, N-((3R,4R)-4-fluoro-1-(4-((3-methoxy-1-(1-methylpiperidin-4-yl)-1H-pyrazol-4-yl)amino)-7-methylimidazo[2,1-f][1,2,4]triazin-2-yl)pyrrolidin-3-yl)acrylamide]	≤ 10	< 50	≤ 10	50 to 300	≤ 10	≥ 100	≥ 100	< 50	
C=CC(=O)N[C@@H]1CN(c2nc(Nc3cn([C@H]4CCN(C)C4)nc3OC)c3ncc(C)n3n2)C[C@H]1F [Example 2, N-((3R,4R)-4-fluoro-1-(4-((3-methoxy-1-((S)-1-methylpyrrolidin-3-yl)-1H-pyrazol-4-yl)amino)-7-methylimidazo[2,1-f][1,2,4]triazin-2-yl)pyrrolidin-3-yl)acrylamide]	≤ 10	< 50	≤ 10	50 to 300	≤ 10	≥ 100	≥ 100	< 50	

— patent publication US20180201614A1, “BICYCLIC COMPOUNDS” (KALYRA PHARMACEUTICALS, INC., priority 2015, published 2018)
